For 58 compounds, IC50 results are on record in ChEMBL document CHEMBL5360544, “Design, synthesis, and biological evaluation of diaryl heterocyclic derivatives targeting tubulin polymerization with potent anticancer activities” (Eur J Med Chem, 2023).

The test system of data set [1] is HCT-116. In words: Antiproliferative activity against human HCT-116 cells incubated for 48 hrs by CCK-8 assay. To be noted: HCT-116, 48 h. It is filed as functional, cell-based. Background: Tetrazolium assays rely on reduction of a dye to a coloured formazan, in cell work by metabolically active cells.
Data set [2] can be described thus: Antiproliferative activity against human HEK293T cells incubated for 48 hrs by CCK-8 assay. Format: toxicity, cell-based, HEK-293T.
For data set [3], the system named is HepG2. In words: Antiproliferative activity against human HepG2 cells incubated for 48 hrs by CCK-8 assay. Format: functional, cell-based. To be noted: HepG2, 48 h.
Data set [4] relates to HeLa. Description: Antiproliferative activity against human HeLa cells incubated for 48 hrs by CCK-8 assay. Format: functional, cell-based.
For data set [5], the system named is MDA-MB-231. Description: Antiproliferative activity against human MDA-MB-231 cells incubated for 48 hrs by CCK-8 assay. Format: functional, cell-based. To be noted: MDA-MB-231, 48 h.
In data set [6] the test system is SW480. Description: Antiproliferative activity against human SW480 cells incubated for 48 hrs by CCK-8 assay. To be noted: SW480, 48 h. It is filed as functional, cell-based.

Broadly, the IC50 is the concentration that gives 50% inhibition. In the case of `COc1cc(-c2ccnn2-c2ccccc2[N+](=O)[O-])cc(OC)c1OC`, in data set [1], the IC50 was more than 64 µM.
Still for that read-out and setting: for `COc1cc(-c2nc(N)ncc2-c2ccc3c(cnn3C)c2)cc(OC)c1OC` the value was more than 64 µM; for `COc1cc(-c2nc(N)ncc2-c2c[nH]c3ccccc23)cc(OC)c1OC`, more than 64 µM.
Same read-out and setting: for `COc1cc(-c2nc(N)ncc2-c2ccc(Cl)cc2)cc(OC)c1OC` the value was more than 64 µM; for `COc1cc(-c2ccnn2-c2ccc(S(N)(=O)=O)cc2)cc(OC)c1OC`, more than 64 µM.
For `COc1cc(-c2nc(N)ncc2-c2ccc3c(ccn3C)c2)cc(OC)c1OC`, the IC50 at 48 h in data set [2] was more than 80 µM. Further, the IC50 was 30.8 µM in data set [3]; 7.54 µM in data set [4]; 14.7 µM in data set [1]; more than 64 µM in data set [5]; 5.05 µM in data set [6].
`COc1cc(-c2nc(N)ncc2-c2ccccc2C)cc(OC)c1OC` gave an IC50 in data set [1] of more than 64 µM.
Still for that read-out and setting: for `COc1cccc(-c2cnc(N)nc2-c2cc(OC)c(OC)c(OC)c2)c1` the value was more than 64 µM.
In data set [2], `COc1cc(-c2nc(N)ncc2-c2ccc(SC)cc2)cc(OC)c1OC` gave an IC50 at 48 h of more than 80 µM. Also, the IC50 in data set [3] is 52.1 µM; in data set [4], 37.8 µM; in data set [1] it was 11.8 µM; in data set [5], more than 64 µM; in data set [6], more than 64 µM.
Regarding `COc1cc(-c2ccnn2-c2cccc(N)c2)cc(OC)c1OC`, the IC50 in data set [1] is more than 64 µM.
In data set [1], `COc1cc(-c2ccnn2-c2cccnc2)cc(OC)c1OC` returned an IC50 of more than 64 µM.
In data set [1], `COc1cc(-c2ccnn2-c2ccc(C(=O)O)cc2)cc(OC)c1OC` gave an IC50 of more than 64 µM.
On the same count and under the same terms, for `COC(=O)c1ccc(-c2cnc(N)nc2-c2cc(OC)c(OC)c(OC)c2)cc1` the value was more than 64 µM; for `COc1cc(-c2ccnn2-c2nccs2)cc(OC)c1OC`, more than 64 µM.
On the same count and under the same terms, for `COc1cc(-c2ccnn2-c2ccc(OCc3ccccc3)cc2)cc(OC)c1OC` the value was more than 64 µM.
In data set [2], `COc1ccc(-c2cnc(N)nc2-c2cc(OC)c(OC)c(OC)c2)cc1` yielded an IC50 at 48 h of more than 80 µM. Further, the IC50 is 29.9 µM in data set [3]; 60.5 µM in data set [4]; 12.7 µM in data set [1]; 22.4 µM in data set [5]; more than 64 µM in data set [6].
`COc1cc(-c2ccnn2-c2ccc(CO)cc2)cc(OC)c1OC` showed an IC50 in data set [1] of more than 64 µM.
Compound `COc1cc(-c2nc(N)ncc2-c2ccc3cc[nH]c3c2)cc(OC)c1OC` returned an IC50 at 48 h in data set [2] of more than 80 µM. Besides, the concentration for half-maximal inhibition (IC50) worked out at 1.37 µM in data set [3]; 19.3 µM in data set [4]; 3.87 µM in data set [1]; 27.1 µM in data set [5]; 36.8 µM in data set [6].
On to `COc1cc(-c2nc(N)ncc2-c2ccc(F)cc2)cc(OC)c1OC`, for which, in data set [1], the IC50 was more than 64 µM.
For the compound `COc1ccc(-n2nccc2-c2cc(OC)c(OC)c(OC)c2)cn1`, in data set [1], the IC50 was more than 64 µM.
In data set [1], `COC(=O)c1ccc(-n2nccc2-c2cc(OC)c(OC)c(OC)c2)cc1` showed an IC50 of more than 64 µM.
`COc1ccc(-c2cnc(N)nc2-c2cc(OC)c(OC)c(OC)c2)cc1N` registered an IC50 at 48 h in data set [2] of more than 80 µM. In addition, the IC50 in data set [3] is 17 µM; in data set [4], more than 64 µM; in data set [1] it was 7.45 µM; in data set [5], 11.6 µM; in data set [6], 52.2 µM.
Take `COc1cc(-c2ccnn2-c2ccc([N+](=O)[O-])cc2)cc(OC)c1OC`: the IC50 in data set [1] is more than 64 µM.
Regarding `CCOc1cc(-c2cnc(N)nc2-c2cc(OC)c(OC)c(OC)c2)ccc1Cl`, the IC50 in data set [1] is more than 64 µM.
On the same count and under the same terms, for `COc1ccc(-n2nccc2-c2cc(OC)c(OC)c(OC)c2)cc1` the value was more than 64 µM.
In data set [2], `COc1cc(-c2nc(N)ncc2-c2cc3ccccc3s2)cc(OC)c1OC` showed an IC50 at 48 h of more than 80 µM. The IC50 in data set [3] is 0.25 µM; in data set [4], 17.9 µM; in data set [1], 4.22 µM; in data set [5] it was 14.5 µM; in data set [6], 5.99 µM.
In data set [2], `COc1cc(-c2ccnn2-c2ccc(C)cc2)cc(OC)c1OC` registered an IC50 at 48 h of more than 80 µM. Further, the IC50 in data set [3] amounted to 10.3 µM; in data set [4], 46.6 µM; in data set [1] it was 17 µM; in data set [5], 7.29 µM; in data set [6] it was 37.9 µM.
In turn, `COc1cc(-c2ccnn2-c2ccc(O)cc2)cc(OC)c1OC` showed an IC50 in data set [1] of more than 64 µM.
`COc1cc(-c2nc(N)ncc2-c2ccc(N)cc2)cc(OC)c1OC` gave an IC50 in data set [1] of 38.5 µM.
Still for that read-out and setting: for `COc1ccc(-c2cnc(N)nc2-c2cc(OC)c(OC)c(OC)c2)cc1Cl` the value was more than 64 µM; for `COc1cc(-c2ccnn2-c2ccc(Br)cc2)cc(OC)c1OC`, more than 64 µM; for `COc1cc(-c2cnc(N)nc2-c2cc(OC)c(OC)c(OC)c2)ccc1O`, more than 64 µM.
For `COCc1ccc(-c2cnc(N)nc2-c2cc(OC)c(OC)c(OC)c2)cc1`, in data set [2], the IC50 at 48 h is more than 80 µM. Also, the IC50 in data set [3] was 2.04 µM; in data set [4], more than 64 µM; in data set [1], 16.7 µM; in data set [5] it was 14 µM; in data set [6], more than 64 µM.
`COc1cc(-c2nc(N)ncc2-c2ccc(CO)cc2)cc(OC)c1OC` gave an IC50 in data set [1] of more than 64 µM.
On the same count and under the same terms, for `COc1cc(-c2nc(N)ncc2-c2ccc3c(c2)OCCO3)cc(OC)c1OC` the value was more than 64 µM; for `CNS(=O)(=O)Cc1ccc(-n2nccc2-c2cc(OC)c(OC)c(OC)c2)cc1`, more than 64 µM; for `COc1cc(-c2ccnn2-c2ccc(S(C)(=O)=O)cc2)cc(OC)c1OC`, more than 64 µM.
In data set [2], `CCn1c2ccccc2c2cc(-c3cnc(N)nc3-c3cc(OC)c(OC)c(OC)c3)ccc21` displayed an IC50 at 48 h of more than 80 µM. For the same compound, the IC50 was determined as 0.57 µM in data set [3]; 11.2 µM in data set [4]; 3.04 µM in data set [1]; 4.69 µM in data set [5]; 4.32 µM in data set [6].
In data set [1], `COc1cc(-c2ccnn2-c2ccc(F)cc2)cc(OC)c1OC` registered an IC50 of more than 64 µM.
Same read-out and setting: for `COc1ccc(-c2cnc(N)nc2-c2cc(OC)c(OC)c(OC)c2)cc1C=O` the value was more than 64 µM; for `COc1ccc(-c2cnc(N)nc2-c2cc(OC)c(OC)c(OC)c2)cc1[N+](=O)[O-]`, more than 64 µM.
`COc1cc(-c2nc(N)ncc2-c2ccccc2)cc(OC)c1OC` registered an IC50 in data set [1] of more than 64 µM.
The same measure, in the same setting: for `COc1cc(-c2ccnn2-c2cccc([N+](=O)[O-])c2)cc(OC)c1OC` the value was more than 64 µM; for `COc1cc(-c2ccnn2-c2ccc(C#N)cc2)cc(OC)c1OC`, more than 64 µM.
Compound `COc1cc(-c2nc(N)ncc2-c2cccc(C)c2)cc(OC)c1OC` registered an IC50 in data set [1] of more than 64 µM.
In data set [2], `COc1cc(-c2nc(N)ncc2-c2ccc(C)c(C)c2)cc(OC)c1OC` came in with an IC50 at 48 h of more than 80 µM. Moreover, the IC50 was 15.2 µM in data set [3]; more than 64 µM in data set [4]; 23.9 µM in data set [1]; more than 64 µM in data set [5]; more than 64 µM in data set [6].
In turn, `COc1cc(-c2cnc(N)nc2-c2cc(OC)c(OC)c(OC)c2)cc(OC)c1OC` gave an IC50 in data set [1] of more than 64 µM.
With `COc1cc(-c2ccnn2-c2ccc(I)cc2)cc(OC)c1OC`, the IC50 at 48 h in data set [2] is more than 80 µM. Also, the IC50 in data set [3] stood at 5.64 µM; in data set [4] it was 23.4 µM; in data set [1] it was 14.7 µM; in data set [5], 8.21 µM; in data set [6] it was 28.2 µM.
For `COc1ccc(-c2cnc(NC(C)=O)nc2-c2cc(OC)c(OC)c(OC)c2)cc1N`, in data set [2], the IC50 at 48 h was more than 80 µM. Moreover, the concentration for half-maximal inhibition (IC50) in data set [3], in data set [4], in data set [1], in data set [5] and in data set [6] was more than 64 µM in each case.
As to `COc1cc(-c2ccnn2-c2ccc(C)c(C)c2)cc(OC)c1OC`, in data set [1], the IC50 was more than 64 µM.
Still for that read-out and setting: for `COc1cc(-c2nc(N)ncc2-c2ccc(S(C)(=O)=O)cc2)cc(OC)c1OC` the value was more than 64 µM.
As to `COc1ccc(-c2cnc(N)nc2-c2cc(OC)c(OC)c(OC)c2)cc1F`, the IC50 at 48 h in data set [2] was more than 80 µM. Moreover, the IC50 was determined as 34.1 µM in data set [3]; 32.3 µM in data set [4]; 13 µM in data set [1]; 10.6 µM in data set [5]; 58.4 µM in data set [6].
In data set [1], `COc1cc(-c2nc(N)ncc2-c2ccc([N+](=O)[O-])cc2)cc(OC)c1OC` displayed an IC50 of more than 64 µM.
As to `COc1cc(-c2ccnn2-c2cccc3ccccc23)cc(OC)c1OC`, the half-inhibitory concentration (IC50) in data set [1] is more than 64 µM.
Consider `COc1cc(-c2nc(N)ncc2-c2cn(S(=O)(=O)c3ccccc3)c3ccccc23)cc(OC)c1OC`, for which the IC50 in data set [1] was more than 64 µM.
The same measure, in the same setting: for `COc1cc(-c2nc(N)ncc2-c2cnc(N)nc2)cc(OC)c1OC` the value was more than 64 µM; for `COc1cc(-c2ccnn2-c2ccc(Cl)cc2)cc(OC)c1OC`, more than 64 µM.
The compound `COc1cc(-c2nc(N)ncc2-c2ccc(C)cc2)cc(OC)c1OC` yielded a half-maximal inhibitory concentration (IC50) at 48 h in data set [2] of more than 80 µM. Moreover, the IC50 in data set [3] is 45.8 µM; in data set [4], 25.2 µM; in data set [1], more than 64 µM; in data set [5], more than 64 µM; in data set [6], 39.7 µM.
